According to the NIST ThermoML archive (doi:10.1016/j.fluid.2010.01.002):
Numbers after ± are expanded uncertainties.

Test: mn = molality of the nth substance listed, in mol/kg
Conditions: 101 kPa, Liquid, Vibrating tube method

## COS(=O)(=O)[O-].Cn1cc[n+](C)c1 [1,3-dimethylimidazolium methylsulfate] + O
298.15 K, m1 = 0.0095
  mass density: 997.56 ± 0.04 kg/m3
298.15 K, m1 = 0.018
  mass density: 998.03 ± 0.04 kg/m3
298.15 K, m1 = 0.0236
  mass density: 998.32 ± 0.04 kg/m3
298.15 K, m1 = 0.0316
  mass density: 998.76 ± 0.04 kg/m3
298.15 K, m1 = 0.0414
  mass density: 999.29 ± 0.04 kg/m3
298.15 K, m1 = 0.0611
  mass density: 1000.34 ± 0.04 kg/m3
298.15 K, m1 = 0.0788
  mass density: 1001.28 ± 0.05 kg/m3
298.15 K, m1 = 0.0914
  mass density: 1001.94 ± 0.05 kg/m3
298.15 K, m1 = 0.1165
  mass density: 1003.24 ± 0.05 kg/m3
298.15 K, m1 = 0.1441
  mass density: 1004.65 ± 0.05 kg/m3
298.15 K, m1 = 0.1816
  mass density: 1006.53 ± 0.05 kg/m3
298.15 K, m1 = 0.2172
  mass density: 1008.25 ± 0.05 kg/m3
298.15 K, m1 = 0.2724
  mass density: 1010.92 ± 0.05 kg/m3
298.15 K, m1 = 0.3964
  mass density: 1016.79 ± 0.05 kg/m3
298.15 K, m1 = 0.4557
  mass density: 1019.55 ± 0.06 kg/m3
298.15 K, m1 = 0.5756
  mass density: 1024.98 ± 0.06 kg/m3
298.15 K, m1 = 0.7108
  mass density: 1030.77 ± 0.06 kg/m3
298.15 K, m1 = 1.826
  mass density: 1071.65 ± 0.1 kg/m3
308.15 K, m1 = 0.0095
  mass density: 994.57 ± 0.05 kg/m3
308.15 K, m1 = 0.018
  mass density: 995.02 ± 0.05 kg/m3
308.15 K, m1 = 0.0236
  mass density: 995.31 ± 0.05 kg/m3
308.15 K, m1 = 0.0316
  mass density: 995.73 ± 0.05 kg/m3
308.15 K, m1 = 0.0414
  mass density: 996.24 ± 0.05 kg/m3
308.15 K, m1 = 0.0611
  mass density: 997.25 ± 0.05 kg/m3
308.15 K, m1 = 0.0788
  mass density: 998.16 ± 0.05 kg/m3
308.15 K, m1 = 0.0914
  mass density: 998.8 ± 0.05 kg/m3
308.15 K, m1 = 0.1165
  mass density: 1000.06 ± 0.05 kg/m3
308.15 K, m1 = 0.1441
  mass density: 1001.43 ± 0.05 kg/m3
308.15 K, m1 = 0.1816
  mass density: 1003.27 ± 0.05 kg/m3
308.15 K, m1 = 0.2172
  mass density: 1004.99 ± 0.05 kg/m3
308.15 K, m1 = 0.2724
  mass density: 1007.59 ± 0.05 kg/m3
308.15 K, m1 = 0.3964
  mass density: 1013.25 ± 0.05 kg/m3
308.15 K, m1 = 0.4557
  mass density: 1015.89 ± 0.05 kg/m3
308.15 K, m1 = 0.5756
  mass density: 1021.08 ± 0.06 kg/m3
308.15 K, m1 = 0.7108
  mass density: 1026.7 ± 0.06 kg/m3
308.15 K, m1 = 1.826
  mass density: 1065.12 ± 0.1 kg/m3
318.15 K, m1 = 0.0095
  mass density: 990.75 ± 0.05 kg/m3
318.15 K, m1 = 0.018
  mass density: 991.2 ± 0.05 kg/m3
318.15 K, m1 = 0.0236
  mass density: 991.48 ± 0.05 kg/m3
318.15 K, m1 = 0.0316
  mass density: 991.89 ± 0.05 kg/m3
318.15 K, m1 = 0.0414
  mass density: 992.39 ± 0.05 kg/m3
318.15 K, m1 = 0.0611
  mass density: 993.38 ± 0.05 kg/m3
318.15 K, m1 = 0.0788
  mass density: 994.27 ± 0.05 kg/m3
318.15 K, m1 = 0.0914
  mass density: 994.9 ± 0.05 kg/m3
318.15 K, m1 = 0.1165
  mass density: 996.14 ± 0.05 kg/m3
318.15 K, m1 = 0.1441
  mass density: 997.49 ± 0.05 kg/m3
318.15 K, m1 = 0.1816
  mass density: 999.3 ± 0.05 kg/m3
318.15 K, m1 = 0.2172
  mass density: 1001 ± 0.05 kg/m3
318.15 K, m1 = 0.2724
  mass density: 1003.6 ± 0.05 kg/m3
318.15 K, m1 = 0.3964
  mass density: 1009.26 ± 0.05 kg/m3
318.15 K, m1 = 0.4557
  mass density: 1011.88 ± 0.05 kg/m3
318.15 K, m1 = 0.5756
  mass density: 1017.04 ± 0.06 kg/m3
318.15 K, m1 = 0.7108
  mass density: 1022.63 ± 0.06 kg/m3
318.15 K, m1 = 1.826
  mass density: 1061.7 ± 0.1 kg/m3
328.15 K, m1 = 0.0095
  mass density: 986.12 ± 0.05 kg/m3
328.15 K, m1 = 0.018
  mass density: 986.56 ± 0.05 kg/m3
328.15 K, m1 = 0.0236
  mass density: 986.84 ± 0.05 kg/m3
328.15 K, m1 = 0.0316
  mass density: 987.25 ± 0.05 kg/m3
328.15 K, m1 = 0.0414
  mass density: 987.74 ± 0.05 kg/m3
328.15 K, m1 = 0.0611
  mass density: 988.72 ± 0.05 kg/m3
328.15 K, m1 = 0.0788
  mass density: 989.59 ± 0.05 kg/m3
328.15 K, m1 = 0.0914
  mass density: 990.2 ± 0.05 kg/m3
328.15 K, m1 = 0.1165
  mass density: 991.43 ± 0.05 kg/m3
328.15 K, m1 = 0.1441
  mass density: 992.77 ± 0.05 kg/m3
328.15 K, m1 = 0.1816
  mass density: 994.58 ± 0.05 kg/m3
328.15 K, m1 = 0.2172
  mass density: 996.25 ± 0.05 kg/m3
328.15 K, m1 = 0.2724
  mass density: 998.8 ± 0.05 kg/m3
328.15 K, m1 = 0.3964
  mass density: 1004.4 ± 0.05 kg/m3
328.15 K, m1 = 0.4557
  mass density: 1006.99 ± 0.05 kg/m3
328.15 K, m1 = 0.5756
  mass density: 1012.19 ± 0.06 kg/m3
328.15 K, m1 = 0.7108
  mass density: 1017.83 ± 0.06 kg/m3
328.15 K, m1 = 1.826
  mass density: 1057 ± 0.09 kg/m3
